Reference: publication PMC9670909 (ACS Omega, 2022)
pIC50: −log10 of the molar value.

Legend:
[1] = biological target: T1, MAO-B (Homo sapiens, UniProt P27338); experiment: MAO-B inhibitory assay; type: biochemical; conditions: MAO-B IC50, kynuramine 30 μM, potassium phosphate buffer pH 7.4, 37 °C, 20 min
T1 sequence (P27338 1-520): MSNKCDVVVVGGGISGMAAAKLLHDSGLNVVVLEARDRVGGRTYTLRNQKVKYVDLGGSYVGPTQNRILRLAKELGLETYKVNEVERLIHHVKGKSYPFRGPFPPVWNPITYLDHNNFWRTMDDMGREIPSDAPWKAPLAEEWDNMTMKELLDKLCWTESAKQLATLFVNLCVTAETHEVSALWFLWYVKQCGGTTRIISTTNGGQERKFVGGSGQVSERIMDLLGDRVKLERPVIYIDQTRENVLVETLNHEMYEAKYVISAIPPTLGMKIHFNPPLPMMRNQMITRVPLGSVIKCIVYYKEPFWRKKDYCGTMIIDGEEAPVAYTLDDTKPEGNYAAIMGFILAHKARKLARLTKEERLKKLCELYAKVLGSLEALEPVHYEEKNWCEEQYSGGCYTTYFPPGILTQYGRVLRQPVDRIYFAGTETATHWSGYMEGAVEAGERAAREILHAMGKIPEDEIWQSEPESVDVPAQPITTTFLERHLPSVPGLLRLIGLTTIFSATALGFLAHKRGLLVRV

[2] = biological target: T2, Human recombinant MAO-A (Homo sapiens, UniProt P21397); experiment: MAO-A inhibitory assay; type: biochemical
T2 sequence (P21397 1-527): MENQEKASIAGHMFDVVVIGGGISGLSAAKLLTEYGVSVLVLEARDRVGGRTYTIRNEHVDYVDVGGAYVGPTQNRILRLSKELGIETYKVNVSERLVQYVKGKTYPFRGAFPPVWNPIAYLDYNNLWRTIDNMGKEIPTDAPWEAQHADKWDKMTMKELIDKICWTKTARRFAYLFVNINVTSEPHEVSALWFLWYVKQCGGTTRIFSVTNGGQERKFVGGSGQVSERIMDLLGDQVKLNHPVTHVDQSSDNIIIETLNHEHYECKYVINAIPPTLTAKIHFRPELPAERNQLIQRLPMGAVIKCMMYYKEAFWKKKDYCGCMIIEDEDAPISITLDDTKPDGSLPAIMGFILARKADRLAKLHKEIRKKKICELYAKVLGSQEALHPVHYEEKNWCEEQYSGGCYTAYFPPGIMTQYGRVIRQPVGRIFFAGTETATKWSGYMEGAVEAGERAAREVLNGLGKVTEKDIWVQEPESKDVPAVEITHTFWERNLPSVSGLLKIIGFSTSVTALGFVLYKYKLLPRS

Structure (SMILES)	pIC50 [1]	pIC50 [2]
CCOC(=O)c1c(OC)cc(OC)cc1C(=O)c1cc(C)cc(OC)c1OC [compound 21, Ethyl 2-(2,3-dimethoxy-5-methylbenzoyl)-4,6-dimethoxybenzoate]	4.21	4.33
COc1cc(C)cc(C(=O)c2cc(OCc3ccccc3)cc(O)c2Br)c1OCc1ccccc1 [compound 38, (5-(Benzyloxy)-2-bromo-3-hydroxyphenyl) (2-(benzyloxy)-3-methoxy-5-methylphenyl)methanone]	4.03	4.69
COc1cc(OC)c2c(c1)C(O)(c1cc(C)cc(OC)c1OC)OC2=O (stereo not drawn) [compound 12, 3-(2,3-Dimethoxy-5-methylphenyl)-3-hydroxy-5,7-dimethoxyisobenzofuran-1(3H)-one]	4.28	< 4.00
COc1cc(O)c2c(c1)C(O)(c1cc(C)cc(OC)c1OC)NC2=O (stereo not drawn) [compound 36, 3-(2,3-Dimethoxy-5-methylphenyl)-3,7-dihydroxy-5-methoxyisoindolin-1-one]	4.42	4.50
COc1cc(OC)c(Br)c(C(=O)c2cc(C)cc(OC)c2OC)c1 [compound 16, (2-Bromo-3,5-dimethoxyphenyl)(2,3-dimethoxy-5-methylphenyl)methanone]	< 4.00	4.21
COCOc1cc(O)cc(C(=O)c2cc(C)cc(OC)c2O)c1Br [compound 32, (2-Bromo-5-hydroxy-3-(methoxymethoxy)phenyl) (2-hydroxy-3-methoxy-5-methylphenyl)methanone]	4.27	4.47
COc1cc(C)cc(C(=O)c2cc(OCc3ccccc3)cc(OCc3ccccc3)c2)c1OC [compound 25, (3,5-Bis(benzyloxy)phenyl)(2,3-dimethoxy-5-methylphenyl)methanone]	< 4.00	< 4.00
COc1cc(C)cc(C(=O)c2cc(OCc3ccccc3)cc(OCc3ccccc3)c2C#N)c1OC [compound 27, 2,4-Bis(benzyloxy)-6-(2,3-dimethoxy-5-methylbenzoyl)benzonitrile]	< 4.00	< 4.00
COc1cc(C)cc(C(=O)c2cc(O)cc(O)c2Br)c1O [compound 31, (2-Bromo-3,5-dihydroxyphenyl)(2-hydroxy-3-methoxy-5-methylphenyl)methanone]	4.36	4.83
COCOc1cc(OCc2ccccc2)cc(C(=O)c2cc(C)cc(OC)c2OCc2ccccc2)c1Br [compound 37, (5-(Benzyloxy)-2-bromo-3-(methoxymethoxy)phenyl) (2-(benzyloxy)-3-methoxy-5-methylphenyl)methanone]	4.73	4.28
COCOc1cc(OC)cc(C(=O)c2cc(C)cc(OC)c2OC)c1C#N [compound 34, 2-(2,3-Dimethoxy-5-methylbenzoyl)-4-methoxy-6-(methoxymethoxy)benzonitrile]	< 4.00	4.61
COCOc1cc(OC)cc2c1C(=O)NC2(O)c1cc(C)cc(OC)c1OC (stereo not drawn) [compound 35, 3-(2,3-Dimethoxy-5-methylphenyl)-3-hydroxy-5-methoxy-7-(methoxymethoxy)isoindolin-1-one]	< 4.00	< 4.00
COc1cc(OCc2ccccc2)cc(C(=O)c2cc(C)cc(OC)c2OCc2ccccc2)c1C#N [compound 40, (5-(Benzyloxy)-2-cyano-3-methoxyphenyl) (2-(benzyloxy)-3-methoxy-5-methylphenyl)methanone]	< 4.00	< 4.00
COCOc1cc(OC)cc(C(=O)c2cc(C)cc(OC)c2OC)c1Br [compound 33, (2-Bromo-5-methoxy-3-(methoxymethoxy)phenyl)(2,3-dimethoxy-5-methylphenyl)methanone]	< 4.00	4.56
COc1cc(OC)c(C#N)c(C(=O)c2cc(C)cc(OC)c2OC)c1 [compound 17, 2-(2,3-Dimethoxy-5-methylbenzoyl)-4,6-dimethoxybenzonitrile]	< 4.00	< 4.00
COc1cc(OCc2ccccc2)cc(C(=O)c2cc(C)cc(OC)c2OCc2ccccc2)c1Br [compound 39, (5-(Benzyloxy)-2-bromo-3-methoxyphenyl) (2-(benzyloxy)-3-methoxy-5-methylphenyl)methanone]	< 4.00	< 4.00
COc1cc(C)cc(C(=O)c2cc(OCc3ccccc3)cc(OCc3ccccc3)c2Br)c1OC [compound 26, (3,5-Bis(benzyloxy)-2-bromophenyl)(2,3-dimethoxy-5-methylphenyl)methanone]	< 4.00	< 4.00
COC(=O)c1c(OC)cc(OC)cc1C(=O)c1cc(C)cc(OC)c1OC [compound 19, Methyl 2-(2,3-dimethoxy-5-methylbenzoyl)-4,6-dimethoxybenzoate]	< 4.00	< 4.00
